From patent US8901118B2, “Compounds and methods for kinase modulation, and indications therefor” (Plexxikon Inc., priority 2010, dated 2014)

Tests used:
TrkA kinase = TrkA kinase (Homo sapiens, UniProt P04629); assay: TrkA kinase biochemical activity assay (AlphaScreen); settings: 100 μM ATP; read-out: Biochemical Inhibition IC50 TrkA
Method in brief: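 Recombinant TrkA with 30 nM biotin-(E4Y)10 and 100 μM ATP in 25 mM Hepes pH 7.5, 10 mM MnCl2, 5% DMSO, 40 min at room temperature. Phosphorylation read by AlphaScreen (streptavidin donor, PY20 acceptor beads); IC50 from signal vs compound concentration. TrkC run similarly.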

BCR-NTRK3 BaF3 cells = biological target: T1, BCR-NTRK3 BaF3 cells (Homo sapiens, UniProt Q16288); assay: BaF3 BCR-NTRK3 cell proliferation assay (ATPlite); format: cell-based; settings: read-out: Inhibition of Cell Proliferation IC50, BCR/BaF3 TrkC
T1 construct: fused on or other part: P11274 (Breakpoint cluster region protein)
Method in brief: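 BaF3 cells expressing BCR fusions were plated at 10,000 cells/well without IL-3, and MV-4-11 cells at 25,000 cells/well. Cells were treated the next day with an 8-point 1:3 dilution series (top 10 μM final) and incubated 3 days at 37 °C. ATPlite luminescence gave cell number, from which IC50 was fitted.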

SKNSH cells = assay: SKNSH (human neuroblastoma) cell proliferation assay (ATPlite); format: cell-based; settings: SK-N-SH, read-out: Inhibition of Cell Proliferation IC50, SKNSH
Method in brief: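 SK-N-SH human neuroblastoma cells grown in RPMI with 10% FBS were pelleted, resuspended at 2×10^4 cells/mL, and plated at 3,000 cells per well (150 μL) in 96-well plates, then kept overnight at 37° C. in 5% CO2. Compounds in an 8-point 1:3 DMSO series were added as 0.75 μL aliquots.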

TrkA kinase, sequence (P04629 33-796): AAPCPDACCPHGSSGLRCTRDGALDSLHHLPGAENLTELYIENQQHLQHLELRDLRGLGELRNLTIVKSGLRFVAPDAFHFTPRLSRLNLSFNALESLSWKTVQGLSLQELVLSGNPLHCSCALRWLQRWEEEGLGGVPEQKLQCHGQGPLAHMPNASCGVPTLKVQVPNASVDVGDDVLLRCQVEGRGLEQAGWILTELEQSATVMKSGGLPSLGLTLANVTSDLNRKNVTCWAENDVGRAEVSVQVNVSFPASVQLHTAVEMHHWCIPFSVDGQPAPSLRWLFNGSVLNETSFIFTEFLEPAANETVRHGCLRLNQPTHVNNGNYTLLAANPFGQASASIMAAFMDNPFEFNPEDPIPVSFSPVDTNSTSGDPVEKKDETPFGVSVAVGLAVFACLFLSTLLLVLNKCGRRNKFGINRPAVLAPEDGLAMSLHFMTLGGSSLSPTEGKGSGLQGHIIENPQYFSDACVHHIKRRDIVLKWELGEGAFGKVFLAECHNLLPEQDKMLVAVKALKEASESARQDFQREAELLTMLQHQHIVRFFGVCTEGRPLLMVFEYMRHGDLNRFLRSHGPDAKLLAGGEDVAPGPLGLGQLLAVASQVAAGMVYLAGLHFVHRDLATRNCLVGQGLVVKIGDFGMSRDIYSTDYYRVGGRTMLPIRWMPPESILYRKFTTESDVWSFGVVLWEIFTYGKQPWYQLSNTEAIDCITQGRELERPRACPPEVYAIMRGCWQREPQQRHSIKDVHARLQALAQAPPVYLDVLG
T1 sequence (Q16288 whole entry, the tested form may be a part): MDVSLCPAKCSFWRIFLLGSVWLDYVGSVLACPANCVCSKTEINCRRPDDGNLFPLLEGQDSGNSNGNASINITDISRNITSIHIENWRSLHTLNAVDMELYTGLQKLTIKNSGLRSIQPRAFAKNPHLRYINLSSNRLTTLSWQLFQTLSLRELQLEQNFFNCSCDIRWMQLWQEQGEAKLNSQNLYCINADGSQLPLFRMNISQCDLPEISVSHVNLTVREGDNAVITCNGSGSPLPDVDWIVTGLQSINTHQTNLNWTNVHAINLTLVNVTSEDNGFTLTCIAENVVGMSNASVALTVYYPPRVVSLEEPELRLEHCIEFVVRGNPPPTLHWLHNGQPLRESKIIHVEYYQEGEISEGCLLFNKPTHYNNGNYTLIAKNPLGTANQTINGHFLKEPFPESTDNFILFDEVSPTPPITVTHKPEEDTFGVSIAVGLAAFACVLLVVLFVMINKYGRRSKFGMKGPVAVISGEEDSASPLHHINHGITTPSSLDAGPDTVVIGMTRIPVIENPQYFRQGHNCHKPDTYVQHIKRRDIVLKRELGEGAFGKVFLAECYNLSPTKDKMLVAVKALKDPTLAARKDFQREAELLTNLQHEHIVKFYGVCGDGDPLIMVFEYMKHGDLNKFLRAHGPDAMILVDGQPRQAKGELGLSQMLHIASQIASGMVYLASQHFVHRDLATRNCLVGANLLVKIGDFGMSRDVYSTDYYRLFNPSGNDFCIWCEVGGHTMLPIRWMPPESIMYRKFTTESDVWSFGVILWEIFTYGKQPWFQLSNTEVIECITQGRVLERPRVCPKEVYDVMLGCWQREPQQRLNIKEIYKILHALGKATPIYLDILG

IC50 (TrkA kinase) | IC50 (BCR-NTRK3 BaF3 cells) | IC50 (SKNSH cells) | Compound
< 0.1 µM | < 0.1 µM | > 1 µM | CCOc1ncnc2[nH]cc(C(=O)c3ccc(Nc4ccc(OC)nc4)nc3F)c12 [Compound P-4025, (4-Ethoxy-7H-pyrrolo[2,3-d]pyrimidin-5-yl)-[2-fluoro-6-(6-methoxy-pyridin-3-ylamino)-pyridin-3-yl]-methanone]
< 0.1 µM | < 0.01 µM | < 1 µM | COc1ccc(Nc2ccc(Cc3c[nH]c4ncnc(C5CC5)c34)c(F)n2)cn1 [Compound P-4023, [5-(4-cyclopropyl-7H-pyrrolo[2,3-d]pyrimidin-5-ylmethyl)-6-fluoro-pyridin-2-yl]-(6-methoxy-pyridin-3-yl)-amine]

More lines, now with the values behind:

Compound | IC50 (TrkA kinase) | IC50 (BCR-NTRK3 BaF3 cells) | IC50 (SKNSH cells)
COc1ncnc2[nH]cc(Cc3ccc(Nc4ccc(Cl)nc4)nc3F)c12 [Compound P-4003, (6-Chloro-pyridin-3-yl)-[6-fluoro-5-(4-methoxy-7H-pyrrolo[2,3-d]pyrimidin-5-ylmethyl)-pyridin-2-yl]-amine] | < 1 µM | < 0.1 µM | > 1 µM
CCn1cc(Nc2ccc(Cc3c[nH]c4ncnc(OCCOC)c34)c(F)n2)cn1 [Compound P-4014, (1-Ethyl-1H-pyrazol-4-yl)-{6-fluoro-5-[4-(2-methoxy-ethoxy)-7H-pyrrolo[2,3-d]pyrimidin-5-ylmethyl]-pyridin-2-yl}-amine] | > 1 µM | < 1 µM | > 10 µM
Cc1cnc2[nH]cc(Cc3cnc(Nc4cc(C5CC5)n[nH]4)nc3)c2c1 [Compound P-3032, (5-Cyclopropyl-2H-pyrazol-3-yl)-[5-(5-methyl-1H-pyrrolo[2,3-b]pyridin-3-ylmethyl)-pyrimidin-2-yl]-amine] | > 1 µM | < 1 µM | < 1 µM
